According to PubChem BioAssay AID206 (DTP/NCI, 2004):
Several values for one entry are separate records, joined by “and”; a condition that tells them apart may be missing. Equal values may be shown once. Records with an inconclusive call do not appear. Starred links: 1 amine or outer side, 2 acyl side, 3 side chain; linkers in the order of their positions; H or OH if unused. Non-standard residues stand in square brackets, D forms with d. Residues, ends and D or L forms follow the SMILES beside them. *: point of attachment. X2 = CCC(=O)CC1CC(C)CC(C(=O)[*:2])N1[*:1]; X1 = CCCCCCCCC(C)C(=O)*; Aib = CC(C)(N)C(=O)O; X3 = CC(CN(C)CCO)N*

Tested on: nude mice, HT29 intrarenal xenograft, tumor weight T/C
Assay: NCI In Vivo Anticancer Drug Screen. Data for tumor model HT29;CX-1 Human Adenocarcinoma (MER+) (intrarenal inoculation) in NU/NU Swiss (nude) mice
Details: endpoint: mean tumor weight change, higher = larger tumour
Procedure, shortened: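 Mice with transplanted tumors are dosed with compound while controls get vehicle only. Survival or tumor burden is then assessed per group, and the treated value is expressed relative to control.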

[1] = dose: 300.0 mg/kg/injection, schedule: Q04DX004 (sc), vehicle: saline with Tween-80
[2] = dose: 600.0 mg/kg/injection, schedule: Q04DX004 (sc), vehicle: saline with Tween-80
[3] = dose: 1200.0 mg/kg/injection, schedule: Q04DX004 (sc), vehicle: saline with Tween-80
[4] = dose: 75.0 mg/kg/injection, schedule: Q04DX004 (sc), vehicle: saline with Tween-80
[5] = dose: 150.0 mg/kg/injection, schedule: Q04DX004 (sc), vehicle: saline with Tween-80
[6] = dose: 100.0 mg/kg/injection, schedule: Q04DX004 (sc), vehicle: saline with Tween-80
[7] = dose: 200.0 mg/kg/injection, schedule: Q04DX004 (sc), vehicle: saline with Tween-80

Compound: CO[C@H]1C[C@@H]2CC[C@@H](C)[C@@](O)(O2)C(=O)C(=O)N2CCCC[C@H]2C(=O)O[C@H]([C@H](C)C[C@@H]2CC[C@@H](O)[C@H](OC)C2)CC(=O)[C@H](C)C=C(C)[C@@H](O)[C@@H](OC)C(=O)[C@H](C)C[C@H](C)/C=C/C=C/C=C1C
- T/C (dose: 50.0 mg/kg/injection, schedule: Q01DX010 (sc), vehicle: saline with Tween-80): 28 % of control

Compound: CC(C)CCCCCCCCCCCCC(=O)NCC(=O)NC1C(C)OC(Nc2ncnc3nc[nH]c23)C(O)C1O (configuration not stated)
- T/C (dose: 2.0 mg/kg/injection, schedule: Q01DX010 (sc), vehicle: distilled water + Tween-80): -35 % of control
- T/C (dose: 2.0 mg/kg/injection, schedule: Q01DX010 (sc), vehicle: saline with Tween-80): -6 % of control
- T/C (dose: 4.0 mg/kg/injection, schedule: Q04DX004 (sc), vehicle: distilled water + Tween-80): 37 % of control
- T/C (dose: 8.0 mg/kg/injection, schedule: Q01DX010 (sc), vehicle: distilled water + Tween-80): 20 % of control
- T/C (dose: 8.0 mg/kg/injection, schedule: Q04DX004 (sc), vehicle: distilled water + Tween-80): 36 % of control
- T/C (dose: 16.0 mg/kg/injection, schedule: Q01DX010 (sc), vehicle: saline with Tween-80): 23 % of control

Compound: CN(C(=S)S(=O)(=O)C12CC3CC(CC(C3)C1)C2)c1ccccc1
- T/C (dose: 12.5 mg/kg/injection, schedule: Q04DX004 (sc), vehicle: Klucel (hydroxypropylcellulose) (HPC)): 99 % of control
- T/C (dose: 25.0 mg/kg/injection, schedule: Q04DX004 (sc), vehicle: Klucel (hydroxypropylcellulose) (HPC)): 113 % of control
- T/C (dose: 400.0 mg/kg/injection, schedule: Q04DX004 (sc), vehicle: Klucel (hydroxypropylcellulose) (HPC)): 107 % of control and 123 % of control
- T/C (dose: 800.0 mg/kg/injection, schedule: Q04DX004 (sc), vehicle: Klucel (hydroxypropylcellulose) (HPC)): 197 % of control

Compound: CCOC(=O)C(C)(C)Oc1ccc(Cl)cc1
- T/C [1]: 72 % of control
- T/C [2]: 70 % of control
- T/C [3]: 68 % of control

Compound: COc1cc(OC)c(OC)cc1/C=C\c1ccnc2ccccc12
- T/C (dose: 225.0 mg/kg/injection, schedule: Q04DX004 (sc), vehicle: Klucel (hydroxypropylcellulose) (HPC)): 79 % of control
- T/C (dose: 450.0 mg/kg/injection, schedule: Q04DX004 (sc), vehicle: Klucel (hydroxypropylcellulose) (HPC)): 110 % of control
- T/C (dose: 900.0 mg/kg/injection, schedule: Q04DX004 (sc), vehicle: Klucel (hydroxypropylcellulose) (HPC)): 83 % of control
- T/C (dose: 1800.0 mg/kg/injection, schedule: Q04DX004 (sc), vehicle: Klucel (hydroxypropylcellulose) (HPC)): 67 % of control

Compound: O=C(C/C(=N\C(=S)Nc1cc(C(F)(F)F)ccc1Cl)NO)N1CCCC1
- T/C [4]: 51 % of control
- T/C [5]: 49 % of control
- T/C [1]: 80 % of control
- T/C [2]: 70 % of control

Compound: CCN1/C(=C/C=C/C=C\C=C\c2sc3ccc4ccccc4c3[n+]2CC)Sc2ccc3ccccc3c21
- T/C (dose: 25.0 mg/kg/injection, schedule: Q04DX004 (sc), vehicle: saline with Tween-80): 85 % of control
- T/C (dose: 50.0 mg/kg/injection, schedule: Q04DX004 (sc), vehicle: saline with Tween-80): 54 % of control
- T/C [6]: 123 % of control
- T/C [7]: 107 % of control

Compound: CCc1ncnc2cc(OCC3CO3)c(OC)cc12 (configuration not stated)
- T/C (dose: 25.0 mg/kg/injection, schedule: Q04DX004 (sc), vehicle: saline): 69 % of control
- T/C (dose: 50.0 mg/kg/injection, schedule: Q04DX004 (sc), vehicle: saline): 36 % of control
- T/C (dose: 100.0 mg/kg/injection, schedule: Q04DX004 (sc), vehicle: saline): 80 % of control

Compound: C1CCC2[N-]CC3CCCCC3[N-]CC3CCCCC3[N-]CC3CCCCC3[N-]CC2C1.[Cu] (configuration not stated)
- T/C (dose: 6.25 mg/kg/injection, schedule: Q01DX010 (sc), vehicle: Klucel (hydroxypropylcellulose) (HPC)): 35 % of control
- T/C (dose: 12.5 mg/kg/injection, schedule: Q01DX010 (sc), vehicle: Klucel (hydroxypropylcellulose) (HPC)): 49 % of control
- T/C (dose: 25.0 mg/kg/injection, schedule: Q01DX010 (sc), vehicle: Klucel (hydroxypropylcellulose) (HPC)): 54 % of control

Compound: CCCC(=O)O.CCCC(=O)O.CCCC(=O)O.CCCC(=O)O.[Rh].[Rh]
- T/C (dose: 0.5 mg/kg/injection, schedule: Q04DX004 (sc), vehicle: suspension in saline): 99 % of control
- T/C (dose: 1.0 mg/kg/injection, schedule: Q04DX004 (sc), vehicle: suspension in saline): 75 % of control
- T/C (dose: 2.0 mg/kg/injection, schedule: Q04DX004 (sc), vehicle: suspension in saline): 97 % of control
- T/C (dose: 4.0 mg/kg/injection, schedule: Q04DX004 (sc), vehicle: suspension in saline): 155 % of control

Compound: COc1cc2cc3c4cc(OC)c(OC)cc4cc[n+]3c(C)c2cc1OC (tested in a mixture with another compound)
- T/C (dose: 50.0 mg/kg/injection, schedule: Q01DX010 (sc), vehicle: saline): 76 % of control
- T/C (dose: 100.0 mg/kg/injection, schedule: Q01DX010 (sc), vehicle: saline): 68 % of control

Compound: CN1N=C(N)c2cn(C3OC(COP(=O)(O)O)C(O)C3O)c3ncnc1c23 (configuration not stated)
- T/C (dose: 25.0 mg/kg/injection, schedule: Q01DX010 (sc), vehicle: water): 156 % of control
- T/C (dose: 50.0 mg/kg/injection, schedule: Q01DX010 (sc), vehicle: water): 182 % of control

Compound: S=C=NCCc1ccccc1
- T/C (dose: 100.0 mg/kg/injection, schedule: Q01DX010 (sc), vehicle: saline with Tween-80): 57 % of control (2×) and 61 % of control

Compound: CC1=C[S+](c2ccccc2)c2cccc3cc4ccccc4c1c23 (configuration not stated)
- T/C (dose: 8.0 mg/kg/injection, schedule: Q04DX004 (sc), vehicle: saline with Tween-80): 45 % of control
- T/C (dose: 16.0 mg/kg/injection, schedule: Q04DX004 (sc), vehicle: saline with Tween-80): 66 % of control

Compound: CC(=O)Oc1c(C)[nH]ccc1=O
- T/C (dose: 600.0 mg/kg/injection, schedule: Q04DX004 (sc), vehicle: suspension in saline): 112 % of control
- T/C (dose: 1200.0 mg/kg/injection, schedule: Q04DX004 (sc), vehicle: suspension in saline): 77 % of control

Compound: C[C@]12CC[C@H](O)CC1=CC[C@@H]1[C@@H]2CC[C@]2(C)C(=O)CC[C@@H]12
- T/C [4]: 110 % of control
- T/C [5]: 180 % of control
- T/C [1]: 54 % of control
- T/C [2]: 67 % of control

Compound: CC[N](CC)[Ge]([CH2]C)[CH2]C.CC[N](CC)[Ge]([CH2]C)[CH2]C
- T/C (dose: 12.5 mg/kg/injection, schedule: Q01DX010 (sc), vehicle: suspension in saline): 226 % of control
- T/C (dose: 25.0 mg/kg/injection, schedule: Q01DX010 (sc), vehicle: suspension in saline): 158 % of control

Compound: Cc1oc2c(C)c3oc(=O)cc(C)c3cc2c1CCl
- T/C [5]: 107 % of control
- T/C [1]: 71 % of control
- T/C [2]: 114 % of control

Compound: CCCCOCN(COCCCC)C(C)Cc1ccccc1 (configuration not stated)
- T/C [6]: 110 % of control
- T/C [7]: 178 % of control
- T/C (dose: 400.0 mg/kg/injection, schedule: Q04DX004 (sc), vehicle: saline with Tween-80): 98 % of control
- T/C (dose: 800.0 mg/kg/injection, schedule: Q04DX004 (sc), vehicle: saline with Tween-80): 97 % of control

Compound: O=C1C2(Cl)C3(Cl)C4(Cl)C(Cl)(Cl)C5(Cl)[C@]3(Cl)C1(Cl)[C@]5(Cl)C24Cl (some centres not stated)
- T/C (dose: 75.0 mg/kg/injection, schedule: Q04DX004 (sc), vehicle: Klucel (hydroxypropylcellulose) (HPC)): 60 % of control

Compound: CCOC(=O)c1[nH]c2cccc3c2c1CC(Br)C3=O (configuration not stated)
- T/C [5]: 81 % of control
- T/C [1]: 81 % of control
- T/C [2]: 71 % of control
- T/C [3]: 71 % of control

Compound: Nc1nc(N)c2c(Cl)c(CNc3ccc(Cl)c(Cl)c3)ccc2n1
- T/C (dose: 9.38 mg/kg/injection, schedule: Q04DX004 (sc), vehicle: saline with Tween-80): 85 % of control
- T/C (dose: 18.75 mg/kg/injection, schedule: Q04DX004 (sc), vehicle: saline with Tween-80): 60 % of control
- T/C (dose: 37.5 mg/kg/injection, schedule: Q04DX004 (sc), vehicle: saline with Tween-80): 89 % of control and 94 % of control
- T/C [4]: 91 % of control and 97 % of control
- T/C [5]: 113 % of control
- T/C [1]: 64 % of control

Compound: CCCCCCCCC(C)C(=O)N1CCCC1C(=O)N1C(CC(=O)CC)CC(C)CC1C(=O)NC(C)C(=O)NC(C)(C)C(=O)NC(C)(C)C(=O)NC(C(=O)NC(C)C(=O)NC(C)(C)C(=O)NC(C)(C)C(=O)NC(C)CN(C)CCO)C(C)CC (configuration not stated) (X1-P[X2]A[Aib][Aib]IA[Aib][Aib]-X3; configuration not given here)
- T/C (dose: 1.88 mg/kg/injection, schedule: Q04DX004 (sc), vehicle: Klucel (hydroxypropylcellulose) (HPC)): 94 % of control
- T/C (dose: 3.75 mg/kg/injection, schedule: Q04DX004 (sc), vehicle: Klucel (hydroxypropylcellulose) (HPC)): 59 % of control and 67 % of control

Compound: N#CCCSC(=S)C1CCCC1=N (configuration not stated)
- T/C (dose: 225.0 mg/kg/injection, schedule: Q04DX004 (sc), vehicle: saline with Tween-80): 104 % of control
- T/C (dose: 450.0 mg/kg/injection, schedule: Q04DX004 (sc), vehicle: saline with Tween-80): 106 % of control
- T/C (dose: 900.0 mg/kg/injection, schedule: Q04DX004 (sc), vehicle: saline with Tween-80): 114 % of control
- T/C (dose: 1800.0 mg/kg/injection, schedule: Q04DX004 (sc), vehicle: saline with Tween-80): 103 % of control

Compound: Cc1cc(=O)n2c3c(c4c(cc13)c(CN(C)C)cc(=O)n4C)OC2
- T/C [4]: 117 % of control
- T/C [5]: 57 % of control
